In one assay the test system is SEQ ID NO:1. As to the kind of experiment: Glycosylation of Reb F, Reb G and Dulcoside A using SEQ ID NO:1 and activated sugars. The class given is biochemical, Oryza sativa Japonica Group. As to conditions: for Rhamnosylation using UDP-rhamnose compared with glucosylation and xylosylation / glucosylation and xylosylation plateauing after: -19C(O)-β-Glc residue; for glucosylation and xylosylation plateauing after: UDP-glucose and UDP-xylose. The protocol: Bioconversion reaction was carried out in a total of 100 uL sealed vials containing the Tris buffer, 0.1 μmoles of SG acceptor, 0.2 μmoles of activated sugar donor, 1 μmoles of sucrose and 2 ug protein of the enzymes. To each vial, buffer, sucrose, UDP-sugar donor, and SG acceptor were added in that order before finally the enzymes were added. For each SG donor, a control was included to contain the same amounts of sucrose and enzymes without UDP-sugar donors. After hand mixing, the vials were placed in a temperature-controlled shaker set at 30C and 100 rpm in rotating motion for 96 hours (4 days).
After 4 days of reaction, 0.9 mL of 80% acetonitrile was added to each vial and the resulting samples were analyzed in LC/MS. Xylose modification of the -19C(O)-β-Glc residue was confirmed.
The ability of SEQ ID NO:1 to glycosylate the -19C(O)-β-Glc residue of RebF, RebG, and Dulcoside A with different activated sugars used at different concentrations was examined, with the reaction products formed being measured over the course of the reaction.
UDP-glucose, UDP-xylose, and UDP-rhamnose di-sodium salts were used, and the reagents and reaction conditions were as described in Example 1.

Assay [1] can be described thus: Glycosyltransferase assay of SEQ ID NO:1 homologs and variants (IVTT enzymes) on Reb A. Type of assay: biochemical. As to conditions: Reb A acceptor; for Activity relative to the activity of SEQ ID NO:1, Glucose: UDP-glucose; for Activity relative to the activity of SEQ ID NO:1, Glucose / Activity relative to the activity of SEQ ID NO:1, Xylose: SEQ ID1 = 100%; for Activity relative to the activity of SEQ ID NO:1, Xylose: UDP-xylose. As to the method:
Candidate xylosyltransferase enzymes are produced in vitro using the PURExpress In Vitro Protein Synthesis kit from New England Biolabs (NEB #E6800) according to the manufacturer's instructions, including 250 ng plasmid DNA and the addition of 20 units RNase Inhibitor, Murine (NEB #M0314).
The steviol glycoside (SG) ‘acceptors’ Reb A was tested using 4 glucosyltransferase enzymes (SEQ ID NOs: 1-4) homologous to glucosyltransferases in SG biosynthesis in stevia leaves.
UDP-xylose (98.9% purity) was purchased from BOC Sciences. The activated sugar donors were prepared to 10 mM concentration with 0.05 M tris buffer and stored according to manufacturers' recommendations before use. SG materials were obtained from various sources with 90%+ purities. All SG materials were prepared at 20 mM with 90% DMSO and stored at ambient temperature. Final DMSO concentration in the reaction mixture was 4.5%.
Tris (tris(hydroxymethyl)aminomethane) buffer was prepared at 0.05 M, pH 7.3 and contained 3 mM each of MgCl2 and MnCl2 as co-factors.
Enzymes were produced via in vitro transcription-translation (IVTT) and activities were confirmed using UDP-glucose in a preliminary test. Bioconversion reaction was carried out in a total of 100 μL sealed vials containing the Tris buffer, 0.1 μmoles of SG acceptor, 0.2 μmoles of activated sugar donor, 1 μmoles of sucrose and 2 μg protein of the enzymes. To each vial, buffer, UDP-sugar donor, SG acceptor were added in that order before, finally, the enzymes were added. For each SG donor, a control was included to contain the same amounts of enzymes without UDP-sugar donors. […]
[…] Xylose modification of the -19C(O)-β-Glc residue was confirmed.
Activity of SEQ ID NOs: 2-4 is expressed relative to the activity of SEQ ID NO:1. […] [SEQ ID NO:3 was run more than once in this experiment,]

“And” between values parts separate entries of the source, which are not always exact repeats. Identical values can stand only once.

As for `C=C1C[C@@]23CC[C@H]4[C@@](C)(CCC[C@@]4(C)C(=O)O[C@@H]4O[C@H](CO)[C@@H](O)[C@H](O)[C@H]4O)[C@@H]2CC[C@]1(O[C@@H]1O[C@H](CO)[C@@H](O)[C@H](O)[C@H]1O[C@@H]1O[C@@H](C)[C@H](O)[C@@H](O)[C@H]1O)C3` [Dulcoside A, dulcoside A], the “Rhamnosylation using UDP-rhamnose compared with glucosylation and xylosylation” value with SEQ ID NO:1 is “significantly lower”. The “% Dul A bioconversion” value amounted to 0% in the assay on SEQ ID NO:1 (UDP-Glucose, 0 hours); 77.162% in the assay on SEQ ID NO:1 (UDP-Glucose, 15 hours); 75.215% in the assay on SEQ ID NO:1 (UDP-Glucose, 48 hours); 73.71% with SEQ ID NO:1 (UDP-Glucose, 96 hours); 0% with SEQ ID NO:1 (UDP-Rhamnose, 0 hours); 17.384% in the assay with SEQ ID NO:1 (UDP-Rhamnose, 15 hours). For the same molecule, the “% Dul A bioconversion” value in the assay on SEQ ID NO:1 (UDP-Rhamnose, 48 hours) amounted to 27.427%; with SEQ ID NO:1 (UDP-Rhamnose, 96 hours), 32.608%; in the assay with SEQ ID NO:1 (UDP-Xylose, 0 hours), 0%; in the assay on SEQ ID NO:1 (UDP-Xylose, 15 hours) it was 79.34%; with SEQ ID NO:1 (UDP-Xylose, 48 hours) it was 79.919%; in the assay on SEQ ID NO:1 (UDP-Xylose, 96 hours) it was 79.349%. Besides, the “glucosylation and xylosylation plateauing after” value in the assay on SEQ ID NO:1 worked out at 20 min.
For rebaudioside F [Reb F], the “Rhamnosylation using UDP-rhamnose compared with glucosylation and xylosylation” value in the assay with SEQ ID NO:1 is “significantly lower”. The “% Reb F bioconversion” value in the assay with SEQ ID NO:1 (UDP-Glucose, 0 hours) turned out to be 0%; in the assay on SEQ ID NO:1 (UDP-Glucose, 15 hours) it was 85.9%; in the assay with SEQ ID NO:1 (UDP-Glucose, 48 hours), 85.96%; in the assay with SEQ ID NO:1 (UDP-Glucose, 96 hours), 84.4%; with SEQ ID NO:1 (UDP-Rhamnose, 0 hours) it was 0%; in the assay on SEQ ID NO:1 (UDP-Rhamnose, 15 hours), 17.5%. Also, the “% Reb F bioconversion” value in the assay with SEQ ID NO:1 (UDP-Rhamnose, 48 hours) worked out at 28.412%; in the assay on SEQ ID NO:1 (UDP-Rhamnose, 96 hours) it was 33.216%; with SEQ ID NO:1 (UDP-Xylose, 0 hours), 0%; in the assay with SEQ ID NO:1 (UDP-Xylose, 15 hours), 86.406%; with SEQ ID NO:1 (UDP-Xylose, 48 hours) it was 86.2%; in the assay with SEQ ID NO:1 (UDP-Xylose, 96 hours), 84.179%. Moreover, in the assay on SEQ ID NO:1, the “glucosylation and xylosylation plateauing after” value was found to be 20 min.
As to `C=C1C[C@@]23CC[C@H]4[C@@](C)(CCC[C@@]4(C)C(=O)O[C@@H]4O[C@H](CO)[C@@H](O)[C@H](O)[C@H]4O)[C@@H]2CC[C@]1(O[C@@H]1O[C@H](CO)[C@@H](O)[C@H](O[C@@H]2O[C@H](CO)[C@@H](O)[C@H](O)[C@H]2O)[C@H]1O)C3` [Reb G, rebaudioside G], the “Rhamnosylation using UDP-rhamnose compared with glucosylation and xylosylation” value in the assay on SEQ ID NO:1 is reported as “significantly lower”. The “% Reb G bioconversion” value with SEQ ID NO:1 (UDP-Glucose, 0 hours) is reported as 0%; with SEQ ID NO:1 (UDP-Glucose, 15 hours), 87.748%; with SEQ ID NO:1 (UDP-Glucose, 48 hours) it was 85.225%; in the assay on SEQ ID NO:1 (UDP-Glucose, 96 hours) it was 83.427%; in the assay with SEQ ID NO:1 (UDP-Rhamnose, 0 hours), 0%; with SEQ ID NO:1 (UDP-Rhamnose, 15 hours), 17.055%. Also, the “% Reb G bioconversion” value is 26.923% in the assay on SEQ ID NO:1 (UDP-Rhamnose, 48 hours); 31.347% in the assay on SEQ ID NO:1 (UDP-Rhamnose, 96 hours); 0% with SEQ ID NO:1 (UDP-Xylose, 0 hours); 78.904% in the assay on SEQ ID NO:1 (UDP-Xylose, 15 hours); 78.311% with SEQ ID NO:1 (UDP-Xylose, 48 hours); 77.211% in the assay on SEQ ID NO:1 (UDP-Xylose, 96 hours). Further, the “glucosylation and xylosylation plateauing after” value in the assay with SEQ ID NO:1 is 20 min.

B1: SEQ ID3: glucosyltransferase enzyme, 27% identity to SEQ ID NO:1 (protein, listed as Solanum lycopersicum)
chain: MATNLRVLMFPWLAYGHISPFLNIAKQLADRGFLIYLCSTRINLESIIKKIPEKYADSIHLIELQLPELPELPPHYHTTNGLPPHLNPTLHKALKMSKPNFSRILQNLKPDLLIYDVLQPWAEHVANEQNIPAGKLLTSCAAVFSYFFSFRKNPGVEFPFPAIHLPEVEKVKIREILAKEPEEGGRLDEGNKQMMLMCTSRTIEAKYIDYCTELCNWKVVPVGPPFQDLITNDADNKELIDWLGTKHENSTVFVSFGSEYFLSKEDMEEVAFALELSNVNFIWVARFPKGEERNLEDALPKGFLERIGERGRVLDKFAPQPRILNHPSTGGFISHCGWNSAMESIDFGVPIIAMPIHNDQPINAKLMVELGVAVEIVRDDDGKIHRGEIAETLKSVVTGETGEILRAKVREISKNLKSIRDEEMDAVAEELIQLCRNSNKSK
With B1, the “Activity relative to the activity of SEQ ID NO:1, Glucose” value was 81.5% and 148% in assay [1] (18 hrs); 87.1% and 132% in assay [1] (48 hrs); 99.1% and 148% in assay [1] (96 hrs). In addition, the “Activity relative to the activity of SEQ ID NO:1, Xylose” value is 47.1% and 78.1% in assay [1] (18 hrs); 51.0% and 78.6% in assay [1] (48 hrs); 38.9% and 62.1% in assay [1] (96 hrs).

B2: SEQ ID2: glycosyltransferase variant with a single serine to isoleucine change at position 152 relative to SEQ ID NO:1 (protein, listed as Oryza sativa)
chain: MDSGYSSSYAAAAGMHVVICPWLAFGHLLPCLDLAQRLASRGHRVSFVSTPRNISRLPPVRPALAPLVAFVALPLPRVEGLPDGAESTNDVPHDRPDMVELHRRAFDGLAAPFSEFLGTACADWVIVDVFHHWAAAAALEHKVPCAMMLLGIAHMIASIADRRLERAETESPAAAGQGRPAAAPTFEVARMKLIRTKGSSGMSLAERFSLTLSRSSLVVGRSCVEFEPETVPLLSTLRGKPITFLGLMPPLHEGRREDGEDATVRWLDAQPAKSVVYVALGSEVPLGVEKVHELALGLELAGTRFLWALRKPTGVSDADLLPAGFEERTRGRGVVATRWVPQMSILAHAAVGAFLTHCGWNSTIEGLMFGHPLIMLPIFGDQGPNARLIEAKNAGLQVARNDGDGSFDREGVAAAIRAVAVEEESSKVFQAKAKKLQEIVADMACHERYIDGFIQQLRSYKD
With B2, the “overall activity relative to SEQ ID NO:1” value in assay [1] (Table 8) is “substantially overall increased activity”. Also, the “Activity relative to the activity of SEQ ID NO:1, Glucose” value in assay [1] (18 hrs) was found to be 825%; in assay [1] (48 hrs), 578%; in assay [1] (96 hrs), 504%. The “Activity relative to the activity of SEQ ID NO:1, Xylose” value in assay [1] (18 hrs) is on record as 459%; in assay [1] (48 hrs) it was 392%; in assay [1] (96 hrs), 312%.

B3: SEQ ID1: uridine 5′-diphospho (UDP) glycosyl transferase of 462 amino acids from Oryza sativa Japonica Group (protein, listed as Oryza sativa)
chain: MDSGYSSSYAAAAGMHVVICPWLAFGHLLPCLDLAQRLASRGHRVSFVSTPRNISRLPPVRPALAPLVAFVALPLPRVEGLPDGAESTNDVPHDRPDMVELHRRAFDGLAAPFSEFLGTACADWVIVDVFHHWAAAAALEHKVPCAMMLLGSAHMIASIADRRLERAETESPAAAGQGRPAAAPTFEVARMKLIRTKGSSGMSLAERFSLTLSRSSLVVGRSCVEFEPETVPLLSTLRGKPITFLGLMPPLHEGRREDGEDATVRWLDAQPAKSVVYVALGSEVPLGVEKVHELALGLELAGTRFLWALRKPTGVSDADLLPAGFEERTRGRGVVATRWVPQMSILAHAAVGAFLTHCGWNSTIEGLMFGHPLIMLPIFGDQGPNARLIEAKNAGLQVARNDGDGSFDREGVAAAIRAVAVEEESSKVFQAKAKKLQEIVADMACHERYIDGFIQQLRSYKD
For the molecule B3, the “Activity relative to the activity of SEQ ID NO:1, Glucose” value in assay [1] (18 hrs), in assay [1] (48 hrs) and in assay [1] (96 hrs) was 100% each time. Further, the “Activity relative to the activity of SEQ ID NO:1, Xylose” value in assay [1] (18 hrs), in assay [1] (48 hrs) and in assay [1] (96 hrs) was 100% each time.
